# Assay results: the supplement of paper PMC11451515
# System: NOMO1
# Experiment: cell viability relative to DMSO control; higher = less cytotoxic
# Settings: 48 h
# In short: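 NOMO1 or SEM cells were plated at 500 cells/well and P12-Ichikawa cells at 1000 cells/well in 1536-well plates (5 μl), after each leukemia line had been adapted for at least four passages in each medium. Pin dosing delivered library compounds in DMSO at 11 threefold concentrations, 47 μM to 0.79 nM. CellTiter-Glo One luminescence was read after 48 h at 37°C. Viability is reported as a per-plate percentage of DMSO wells, with cell-free wells as background.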
# [1] = HPLM + 10% dialyzed FBS, 0.000781 µM
# [2] = HPLM + 10% dialyzed FBS, 0.00234 µM
# [3] = HPLM + 10% dialyzed FBS, 0.00702 µM
# [4] = HPLM + 10% dialyzed FBS, 0.0211 µM
# [5] = HPLM + 10% dialyzed FBS, 0.0632 µM
# [6] = HPLM + 10% dialyzed FBS, 0.19 µM
# [7] = HPLM + 10% dialyzed FBS, 0.569 µM
# [8] = HPLM + 10% dialyzed FBS, 1.71 µM
# [9] = HPLM + 10% dialyzed FBS, 5.12 µM
# [10] = HPLM + 10% dialyzed FBS, 15.4 µM
# [11] = HPLM + 10% dialyzed FBS, 46.1 µM
# [12] = RPMI 5 mM glucose + 10% FBS, 0.000781 µM
# [13] = RPMI 5 mM glucose + 10% FBS, 0.00234 µM
# [14] = RPMI 5 mM glucose + 10% FBS, 0.00702 µM
# [15] = RPMI 5 mM glucose + 10% FBS, 0.0211 µM
# [16] = RPMI 5 mM glucose + 10% FBS, 0.0632 µM
# [17] = RPMI 5 mM glucose + 10% FBS, 0.19 µM
# [18] = RPMI 5 mM glucose + 10% FBS, 0.569 µM
# [19] = RPMI 5 mM glucose + 10% FBS, 1.71 µM
# [20] = RPMI 5 mM glucose + 10% FBS, 5.12 µM
# [21] = RPMI 5 mM glucose + 10% FBS, 15.4 µM
# [22] = RPMI 5 mM glucose + 10% FBS, 46.1 µM
# [23] = RPMI 5 mM glucose + 10% dialyzed FBS, 0.000781 µM
# [24] = RPMI 5 mM glucose + 10% dialyzed FBS, 0.00234 µM
# [25] = RPMI 5 mM glucose + 10% dialyzed FBS, 0.00702 µM
# [26] = RPMI 5 mM glucose + 10% dialyzed FBS, 0.0211 µM
# [27] = RPMI 5 mM glucose + 10% dialyzed FBS, 0.0632 µM
# [28] = RPMI 5 mM glucose + 10% dialyzed FBS, 0.19 µM
# [29] = RPMI 5 mM glucose + 10% dialyzed FBS, 0.569 µM
# [30] = RPMI 5 mM glucose + 10% dialyzed FBS, 1.71 µM
# [31] = RPMI 5 mM glucose + 10% dialyzed FBS, 5.12 µM
# [32] = RPMI 5 mM glucose + 10% dialyzed FBS, 15.4 µM
# [33] = RPMI 5 mM glucose + 10% dialyzed FBS, 46.1 µM
Compound,cell viability [1],cell viability [2],cell viability [3],cell viability [4],cell viability [5],cell viability [6],cell viability [7],cell viability [8],cell viability [9],cell viability [10],cell viability [11],cell viability [12],cell viability [13],cell viability [14],cell viability [15],cell viability [16],cell viability [17],cell viability [18],cell viability [19],cell viability [20],cell viability [21],cell viability [22],cell viability [23],cell viability [24],cell viability [25],cell viability [26],cell viability [27],cell viability [28],cell viability [29],cell viability [30],cell viability [31],cell viability [32],cell viability [33]
CN(C(=O)c1ccc(F)cc1C(F)(F)F)C1CCN(c2nnc(-c3ccnn3C)c3ccccc23)CC1,61.1%,79%,87.1%,83.2%,102%,97.8%,83.4%,95.2%,85.2%,88.8%,77.9%,66%,71.6%,69.4%,83.3%,82.3%,84.8%,11.9%,82.8%,79.6%,76.6%,75%,76%,85.4%,79.9%,86.8%,77.6%,86.3%,77.1%,80.7%,82.2%,78%,41.9%
O=C1[O][Pt]2([NH]C3CCCCC3[NH]2)[O]C1=O (centres undefined),116%,118%,119%,107%,141%,118%,131%,120%,90.2%,14.7%,7.1%,108%,103%,120%,119%,110%,135%,115%,107%,90.4%,17.6%,5.82%,107%,108%,100%,110%,109%,122%,108%,112%,98.4%,38.3%,9.17%
CC(Oc1ccc(O)cc1)(P(=O)(O)O)P(=O)(O)O,94.2%,115%,91.7%,92.8%,99.5%,93.5%,91.3%,85.8%,103%,42.6%,17.3%,91.6%,88%,87.4%,83.7%,94.8%,101%,90.4%,85.7%,78.5%,73.7%,14.6%,94.8%,100%,87.9%,93%,84.9%,95.8%,92%,91%,83.9%,64.8%,14.4%
CCOc1ccccc1OCCNC(C)Cc1ccc(OC)c([S+](N)(=O)[O-])c1 (centres undefined),103%,105%,96.8%,121%,129%,119%,120%,114%,109%,115%,102%,98.8%,110%,115%,117%,105%,112%,102%,101%,109%,102%,101%,90.1%,108%,110%,112%,111%,108%,109%,101%,117%,104%,105%
C[C@H]1[C@@H](CC(C[C@H]2O[C@@H]3O[C@]4(C)CC[C@H]5[C@H](C)CC[C@@H]([C@H]2C)[C@@]35OO4)C[S+](=O)([O-])c2ccc(COC(=O)N(C)C)cc2)O[C@@H]2O[C@]3(C)CC[C@H]4[C@H](C)CC[C@@H]1[C@@]24OO3,122%,123%,116%,120%,127%,110%,44.8%,22.5%,22.3%,17.9%,10.8%,114%,119%,113%,98.9%,103%,101%,82.5%,28%,21.8%,17%,15.1%,109%,118%,100%,110%,108%,91.9%,32.3%,22.5%,24%,18.8%,14.8%
CN(C)c1ccc(C(=O)NCCCCCCC(=O)NO)cc1,106%,103%,104%,94.9%,106%,83.5%,112%,89%,7.42%,3.13%,3.88%,91.1%,90.6%,103%,92.3%,95.8%,99.8%,91.4%,92%,6.22%,2.81%,2.37%,102%,103%,124%,106%,112%,105%,106%,89%,7.05%,3.1%,3.05%
COc1ccc2cc(-c3[nH]c(-c4ccc([S+](C)[O-])cc4)nc3-c3ccncc3)ccc2c1 (centres undefined),115%,118%,124%,118%,136%,143%,148%,126%,120%,143%,111%,100%,103%,114%,113%,114%,99.1%,107%,111%,108%,110%,134%,111%,98.5%,106%,118%,121%,113%,130%,123%,127%,150%,119%
c1cc(OCCN2CCCCC2)cc(-c2n[nH]c3ccc(-c4nc[nH]n4)cc23)c1,116%,120%,129%,127%,137%,103%,127%,127%,114%,122%,100%,115%,115%,113%,105%,103%,122%,112%,111%,103%,104%,109%,99.5%,97.1%,101%,108%,101%,109%,114%,105%,111%,101%,109%
Cn1cc(-c2ccncc2)c(-c2ccc(OCc3ccc4ccccc4n3)cc2)n1,,,,,,,,,,,,,,,,,,,,,,,102%,123%,133%,125%,114%,117%,131%,123%,109%,111%,98.4%
NC\1=N\C(=O)N(\C=N1)[C@H]2C[C@H](O)[C@@H](CO)O2,110%,138%,101%,115%,101%,107%,91.4%,82.4%,60.2%,46.5%,43.6%,91.8%,106%,89.6%,92.8%,93.4%,93.7%,98.9%,85.4%,71.1%,51.8%,31.5%,109%,122%,107%,112%,98.6%,109%,114%,96.7%,76.5%,65.9%,36.1%
CCCCCCCCCCCCCCCC(=O)OC[C@@H](NC(=O)C(Cl)Cl)[C@H](O)c1ccc([N+](=O)[O-])cc1,105%,123%,126%,143%,118%,141%,140%,144%,141%,144%,142%,,,,,,,,,,,,,,,,,,,,,,
NC12CC3CC(CC(C3)C1)C2,108%,104%,102%,103%,138%,121%,111%,106%,101%,96.4%,88.5%,102%,102%,102%,101%,97%,108%,98.2%,94.5%,99.1%,98.5%,104%,95.3%,95.8%,108%,97.8%,93.1%,105%,103%,96%,88.3%,97%,81%
CC(C)[C@H](CO)Nc1nc(Nc2ccc(C(=O)O)c(Cl)c2)c2ncn(C(C)C)c2n1,116%,126%,122%,132%,128%,118%,109%,108%,79.4%,107%,29.6%,119%,116%,118%,128%,134%,131%,131%,115%,87.3%,111%,36.1%,122%,125%,123%,137%,124%,140%,127%,122%,90.7%,137%,44.1%
COc1cc2ncnc(Nc3ccc(F)c(Cl)c3)c2cc1OCCCN1CCOCC1,127%,115%,112%,95.3%,109%,117%,108%,96.8%,93.7%,64%,29.2%,111%,114%,109%,106%,102%,116%,104%,100%,101%,87.7%,86.2%,121%,112%,122%,112%,115%,113%,114%,109%,93.4%,97.5%,75.1%
O=P(O)(O)C(O)(Cc1cccnc1)P(=O)(O)[O][Na] (centres undefined),71.5%,102%,98.3%,33%,107%,97.2%,119%,116%,116%,102%,106%,85.3%,93.6%,90.8%,22.8%,90.7%,85%,93%,84.7%,83.7%,85.9%,86.6%,76.4%,80.2%,82.8%,25.2%,88.2%,93.5%,103%,92.6%,97.6%,93.6%,106%
CN(C)c1nc(N(C)C)nc(N(C)C)n1,101%,113%,100%,105%,96.3%,92%,90.5%,97.1%,98.7%,82.3%,89.9%,96.2%,108%,102%,97.4%,99%,95.3%,94.6%,92.2%,95.9%,95.3%,91%,94%,103%,96%,99%,98.4%,103%,101%,89.4%,83.9%,90.8%,85.6%
